Results taken from patent US20060293187A1, “Herbicidal mixtures based on 3-phenyluracils” (BASF Aktiengesellschaft, priority 2003, published 2006).

Legend:
Assay type in all cases: in vivo
Settings in all cases: 21 days, 0 = no damage, 100 = complete destruction
Alopecurus myosuroides = assay: Greenhouse experiment, herbicidal activity, post-emergence method
Source text: (§1) For the post-emergence treatment, the test plants were first grown to a height of 3 to 20 cm, depending on the plant habit, and only then treated. Here, the herbicidal compositions were suspended or emulsified in water as distribution medium and sprayed using finely distributing nozzles.
(§2) The respective components I and B and/or C were formulated as 10% by weight strength emulsion concentrate and introduced to the spray liquor with the amount of solvent system used for applying the active compound. In the examples, the solvent used was water.
(§3) The test period extended over 21 days. During this time, the plants were tended, and their response to the treatments with active compound was evaluated.
(§4) The evaluation for the damage caused by the chemical compositions was carried out using a scale from 0 to 100%, compared to the untreated control plants. Here, 0 means no damage and 100 means complete destruction of the plants.
(§5) In the examples below, the value E which is to be expected if the activity of the individual compounds is just additive was calculated using the method of S. R. Colby (1967) “Calculating synergistic and antagonistic responses of herbicide combinations”, Weeds 15, p. 22 ff. E=X+Y−(X·Y/100) where
(§6) X=effect in percent using active compound I at an application rate a;
(§7) Y=effect in percent using active compound B at an application rate b;
(§8) E=expected effect (in %) of I+B at application rates a+b.
(§9) If the value […] in this manner is higher than the value E calculated according to Colby, a synergistic effect is present.

Echinocloa crus-galli = assay: as above
Source text: as §1, §2, §3, §4, §5, §6, §7, §8, §9

Amaranthus retroflexus = assay: Greenhouse experiment, herbicidal activity, pre-emergence method
Procedure: as §2, §3, §4, §5, §6, §7, §8, §9

[1] = application rate 1.95 g/ha of each active compound applied (mixture 1.95 + 1.95 g/ha)
[2] = application rate 0.98 g/ha of each active compound applied (mixture 0.98 + 0.98 g/ha)

Molecule | Herbicidal activity against Alopecurus myosuroides, found (Alopecurus myosuroides; [1]) [%] | Herbicidal activity against Alopecurus myosuroides, found (Alopecurus myosuroides; application rate 3.91 g/ha of each active compound applied (mixture 3.91 + 3.91 g/ha)) [%] | Herbicidal activity against Echinocloa crus-galli, found (Echinocloa crus-galli; [2]) [%] | Herbicidal activity against Echinocloa crus-galli, found (Echinocloa crus-galli; [1]) [%] | Herbicidal activity against Amaranthus retroflexus, found (Amaranthus retroflexus; [2]) [%] | Herbicidal activity against Amaranthus retroflexus, found (Amaranthus retroflexus; [1]) [%]
4-Hydroxy-3-{[2-methoxyethoxy)methyl-6-(trifluormethyl)-3-pyridinyl]carbonyl}bicyclo[3.2.1]oct-3-en-2-one [B.2] | 0 | 0 |  |  |  | 
Cc1nc(C(F)(F)F)ccc1C(=O)C1=C(O)C2CCC(C2)C1=O (stereo not drawn) [B.1, 4-Hydroxy-3-{[2-methyl-6-(triflurmethyl)-3-pyridinyl]carbonyl}ci-cyclo[3.2.1]oct-3-en-2-one] |  |  | 30 | 60 | 0 | 20
